Measurements reported in publication PMC6151437, “Antibacterial Synthetic Peptides Derived from Bovine Lactoferricin Exhibit Cytotoxic Effect against MDA-MB-468 and MDA-MB-231 Breast Cancer Cell Lines” (Molecules : A Journal of Synthetic Chemistry and Natural …, 2017).
≈ marks a conversion by molar mass, not a printed value. Like-named read-outs stand apart in the source and are kept apart here. Bridge positions count the residues as written; N and C are the ends. Square brackets hold non-standard residues; d marks the D form. Ends that are not written are not given here. Peptide text beside a SMILES is read from it. I, II: the chains in the order shown. Ahx = NCCCCCC(=O)O

Experiments:
[1] = test system: E. coli; set-up: method as in ref 15, 25, 26 = [15]; PMID 25815317; doi:10.1155/2015/453826; 15. León M.A. Leal A.L. Almanzar G. Rosas J.E. García J.E. Rivera Z.J. Antibacterial activity of synthetic peptides derived from Lactoferricin against Escherichia coli ATCC 25922 and Enterococcus faec || [25]; PMID 28613262; doi:10.3390/molecules22060987; 25. Huertas N.J. Monroy Z.J.R. Medina R.F. Castañeda J.E.G. Antimicrobial Activity of Truncated and Polyvalent Peptides Derived from the […] Sequence against Escherichia coli ATCC 25922 an || [26]; PMID 28287494; doi:10.3390/molecules22030452; 26. Huertas Méndez N.J. Vargas Casanova Y. Gómez Chimbi A.K. Hernández E. Leal Castro A.L. Melo Diaz J.M. Rivera Monroy Z.J. García Castañeda J.E. Synthetic Peptides Derived from Bovine Lactoferricin; settings: first of three values given 'respectively', strain not distinguished; cited from earlier work
[2] = test system: S. enteriditis ATCC 13076; set-up: method as in ref 15, 25, 26 = [15]; PMID 25815317; doi:10.1155/2015/453826; 15. León M.A. Leal A.L. Almanzar G. Rosas J.E. García J.E. Rivera Z.J. Antibacterial activity of synthetic peptides derived from Lactoferricin against Escherichia coli ATCC 25922 and Enterococcus faec || [25]; PMID 28613262; doi:10.3390/molecules22060987; 25. Huertas N.J. Monroy Z.J.R. Medina R.F. Castañeda J.E.G. Antimicrobial Activity of Truncated and Polyvalent Peptides Derived from the FKCRRWQWRMKKGLA Sequence against Escherichia coli ATCC 25922 an || [26]; PMID 28287494; doi:10.3390/molecules22030452; 26. Huertas Méndez N.J. Vargas Casanova Y. Gómez Chimbi A.K. Hernández E. Leal Castro A.L. Melo Diaz J.M. Rivera Monroy Z.J. García Castañeda J.E. Synthetic Peptides Derived from Bovine Lactoferricin; settings: cited from earlier work
[3] = test system: E. coli ATCC 25922; format: cell-based
Description: (§1) The minimal inhibitory concentration (MIC) was determined using a microdilution assay. In brief, bacterial strains were incubated for 18 to 24 h at 37 °C in an Muller Hinton broth (MHB) until an optical density of 0.15 to 0.30 (620 nm) was obtained. 90 µL of MHB was mixed with 90 µL of peptide (440 µg/mL), and using a 96-well microtiter plate peptide, serial dilution (200, 100, 50, 25, 12.5, and 6.2 µg/mL) was performed. 10 µL of inoculum (2 × 10^6 CFU/mL) was added to each well. Final volume in each well was 100 µL. Then they were incubated for 24 h at 37 °C, and the absorbance at 620 nm was measured using an Asys Expert Plus ELISA reader. For determining the minimum bactericidal concentration (MBC), a small sample was taken from each well using an inoculation loop, which was then spread on MHA plates and incubated overnight at 37 °C. […] Each of these tests was performed twice (n = 2).

[4] = test system: E. coli ATCC 11775; format: cell-based
Description: as §1

[5] = test system: S. aureus ATCC 25923; set-up: method as in ref 15, 25, 26 = [15]; PMID 25815317; doi:10.1155/2015/453826; 15. León M.A. Leal A.L. Almanzar G. Rosas J.E. García J.E. Rivera Z.J. Antibacterial activity of synthetic peptides derived from Lactoferricin against Escherichia coli ATCC 25922 and Enterococcus faec || [25]; PMID 28613262; doi:10.3390/molecules22060987; 25. Huertas N.J. Monroy Z.J.R. Medina R.F. Castañeda J.E.G. Antimicrobial Activity of Truncated and Polyvalent Peptides Derived from the FKCRRWQWRMKKGLA Sequence against Escherichia coli ATCC 25922 an || [26]; PMID 28287494; doi:10.3390/molecules22030452; 26. Huertas Méndez N.J. Vargas Casanova Y. Gómez Chimbi A.K. Hernández E. Leal Castro A.L. Melo Diaz J.M. Rivera Monroy Z.J. García Castañeda J.E. Synthetic Peptides Derived from Bovine Lactoferricin; settings: cited from earlier work
[6] = format: cell-based, human
Description: (§2) Cytotoxicity assays were performed as previously described. Briefly, breast cancer cell lines (100 µL; 2.5 × 10^3 cells/well) were seeded in 96-well flat bottom tissue culture treated plates and were incubated at 37 °C in a 10% CO2 humidified atmosphere for 24 h, allowing for cell adhesion. Then the media was removed, then 100 µL of FBS (5%) and 100 µL of peptide were added. The peptide final concentration was ranging from 200 to 6.25 µg/mL and the final FBS concentration was 2.5%. Plates were incubated 2 h at 37 °C in a 10% CO2 humidified atmosphere (physiologic pH). Negative controls included medium and water. All controls were prepared in triplicate. Cell viability was determined using the MTT assay after 2 h. For this, 10 µL of MTT solution (5 mg/mL) was added to each well, and the plates were incubated for 2 h at 37 °C. Formazan crystals were clarified by centrifugation, the supernatant was discarded, and the crystals were dissolved in DMSO (100 µL). Absorbance (570 nm) was registered on a Bio-Rad 680 microplate reader. (n = 3).

[7] = test system: human gastric cancer cell line AGS; settings: cited from earlier work
[8] = test system: breast cancer cell line MDA-MB-231; settings: even at the highest tested concentration (40 µM); cited from earlier work
Description: For the second part of the experiments, all members of each designed peptide family were tested against MDA-MB-468 and MDA-MB-231 breast cancer cell lines (Figure 3). […] When breast cancer cells lines were incubated with linear peptides or cyclic peptides (200 µg/mL), their viability was approximately 80%.

[9] = format: cell-based, human; remark: listed apart in the source
Description: as §2

[10] = test system: E. coli ATCC 25922; set-up: method as in ref 15, 25, 26 = [15]; PMID 25815317; doi:10.1155/2015/453826; 15. León M.A. Leal A.L. Almanzar G. Rosas J.E. García J.E. Rivera Z.J. Antibacterial activity of synthetic peptides derived from Lactoferricin against Escherichia coli ATCC 25922 and Enterococcus faec || [25]; PMID 28613262; doi:10.3390/molecules22060987; 25. Huertas N.J. Monroy Z.J.R. Medina R.F. Castañeda J.E.G. Antimicrobial Activity of Truncated and Polyvalent Peptides Derived from the FKCRRWQWRMKKGLA Sequence against Escherichia coli ATCC 25922 an || [26]; PMID 28287494; doi:10.3390/molecules22030452; 26. Huertas Méndez N.J. Vargas Casanova Y. Gómez Chimbi A.K. Hernández E. Leal Castro A.L. Melo Diaz J.M. Rivera Monroy Z.J. García Castañeda J.E. Synthetic Peptides Derived from Bovine Lactoferricin; settings: cited from earlier work
[11] = test system: E. coli ATCC 11775; set-up: method as in ref 15, 25, 26 = [15]; PMID 25815317; doi:10.1155/2015/453826; 15. León M.A. Leal A.L. Almanzar G. Rosas J.E. García J.E. Rivera Z.J. Antibacterial activity of synthetic peptides derived from Lactoferricin against Escherichia coli ATCC 25922 and Enterococcus faec || [25]; PMID 28613262; doi:10.3390/molecules22060987; 25. Huertas N.J. Monroy Z.J.R. Medina R.F. Castañeda J.E.G. Antimicrobial Activity of Truncated and Polyvalent Peptides Derived from the FKCRRWQWRMKKGLA Sequence against Escherichia coli ATCC 25922 an || [26]; PMID 28287494; doi:10.3390/molecules22030452; 26. Huertas Méndez N.J. Vargas Casanova Y. Gómez Chimbi A.K. Hernández E. Leal Castro A.L. Melo Diaz J.M. Rivera Monroy Z.J. García Castañeda J.E. Synthetic Peptides Derived from Bovine Lactoferricin; settings: cited from earlier work
[12] = E. coli ATCC 25922, microdilution in MHB, 24 h at 37 °C, absorbance 620 nm, n = 2
[13] = E. coli ATCC 25922, plated on MHA overnight at 37 °C, no bacterial growth, n = 2
[14] = E. coli ATCC 11775, microdilution in MHB, 24 h at 37 °C, absorbance 620 nm, n = 2
[15] = E. coli ATCC 11775, plated on MHA overnight at 37 °C, no bacterial growth, n = 2

Compound | MIC [1] | MIC [2] | Antibacterial Effect MBC ([3]; ATCC 25922) | Antibacterial Effect MIC ([3]; ATCC 25922, 24 h) | Antibacterial Effect MIC [3, 12] | Antibacterial Effect MBC [3, 13] | Antibacterial Effect MBC ([4]; ATCC 11775) | Antibacterial Effect MIC ([4]; ATCC 11775, 24 h) | Antibacterial Effect MIC [4, 14] | Antibacterial Effect MBC [4, 15] | MIC [5] | IC50 at 2 h ([6]; human) | IC50 [7] | cytotoxic activity (in words) [8] | IC50 [9] | IC50 [6] | MIC [10] | MIC [11]
N=C(N)NCCC[C@H](NC(=O)[C@H](Cc1c[nH]c2ccccc12)NC(=O)[C@H](CCC(N)=O)NC(=O)[C@H](Cc1c[nH]c2ccccc12)NC(=O)[C@H](CCCNC(=N)N)NC(=O)[C@@H](N)CCCNC(=N)N)C(=O)NCCCC[C@H](NC(=O)[C@H](CCCNC(=N)N)NC(=O)[C@H](Cc1c[nH]c2ccccc12)NC(=O)[C@H](CCC(N)=O)NC(=O)[C@H](Cc1c[nH]c2ccccc12)NC(=O)[C@H](CCCNC(=N)N)NC(=O)[C@@H](N)CCCNC(=N)N)C(=O)NCCCCCC(N)=O [LfcinB (20–25)2] (I: H-RRWQWRK[Ahx]-NH2 / II: H-RRWQWR; amide I:7-II:C) | 2.8 µM (≈ 6.15 µg/mL) | 22.4 µM (≈ 49.2 µg/mL) | 11 µM | 6 µM | 12.5 µg/mL | 25 µg/mL | 22 µM | 22 µM | 50 µg/mL | 50 µg/mL | 5.6 µM (≈ 12.3 µg/mL) | > 100 µM |  |  |  |  |  | 
RRWQWR-NH2 [LfcinB (20–25)] |  |  | 203 µM | 203 µM |  |  | 203 µM | 203 µM |  |  |  |  | > 500 µM | weak cytotoxic activity | > 203 µM | > 203 µM |  | 
N=C(N)NCCC[C@H](NC(=O)[C@H](Cc1c[nH]c2ccccc12)NC(=O)[C@H](CCC(N)=O)NC(=O)[C@H](Cc1c[nH]c2ccccc12)NC(=O)[C@H](CCCNC(=N)N)NC(=O)[C@@H](N)CCCNC(=N)N)C(=O)NCCCC[C@H](NC(=O)[C@H](CCCNC(=N)N)NC(=O)[C@H](Cc1c[nH]c2ccccc12)NC(=O)[C@H](CCC(N)=O)NC(=O)[C@H](Cc1c[nH]c2ccccc12)NC(=O)[C@H](CCCNC(=N)N)NC(=O)[C@@H](N)CCCNC(=N)N)C(=O)NCCCCCC(=O)N[C@@H](CSSC[C@H](NC(=O)CCCCCNC(=O)[C@H](CCCCNC(=O)[C@H](CCCNC(=N)N)NC(=O)[C@H](Cc1c[nH]c2ccccc12)NC(=O)[C@H](CCC(N)=O)NC(=O)[C@H](Cc1c[nH]c2ccccc12)NC(=O)[C@H](CCCNC(=N)N)NC(=O)[C@@H](N)CCCNC(=N)N)NC(=O)[C@H](CCCNC(=N)N)NC(=O)[C@H](Cc1c[nH]c2ccccc12)NC(=O)[C@H](CCC(N)=O)NC(=O)[C@H](Cc1c[nH]c2ccccc12)NC(=O)[C@H](CCCNC(=N)N)NC(=O)[C@@H](N)CCCNC(=N)N)C(N)=O)C(N)=O [LfcinB (20–25)4] (I: H-RRWQWRK[Ahx]C-NH2 / II: H-RRWQWRK[Ahx]C-NH2 / III: H-RRWQWR / IV: H-RRWQWR; amide I:7-III:C, II:7-IV:C; disulfide I:9-II:9) |  | 44 µM (≈ 202 µg/mL) | 22 µM | 22 µM | 100 µg/mL | 100 µg/mL | 44 µM | 22 µM | 100 µg/mL | 200 µg/mL | 25 µM (≈ 115 µg/mL) |  |  |  |  |  | 4.4 µM (≈ 20.2 µg/mL) | 5.5 µM (≈ 25.3 µg/mL)
